Measured values reported in publication PMC6199744, “Development of Chemical Proteomics for the Folateome and Analysis of the Kinetoplastid Folateome” (ACS Infectious Diseases, 2018).
Where two headings read alike, the source gives them in different places.

Legend:
Assay type in all cases: binding
[1] = molecular target: T1, HeLa cell extract proteins (Homo sapiens, UniProt P41252)
T1 construct: endogenous in cells; host or cells: HeLa cell extract
T1 sequence (P41252 1-1262): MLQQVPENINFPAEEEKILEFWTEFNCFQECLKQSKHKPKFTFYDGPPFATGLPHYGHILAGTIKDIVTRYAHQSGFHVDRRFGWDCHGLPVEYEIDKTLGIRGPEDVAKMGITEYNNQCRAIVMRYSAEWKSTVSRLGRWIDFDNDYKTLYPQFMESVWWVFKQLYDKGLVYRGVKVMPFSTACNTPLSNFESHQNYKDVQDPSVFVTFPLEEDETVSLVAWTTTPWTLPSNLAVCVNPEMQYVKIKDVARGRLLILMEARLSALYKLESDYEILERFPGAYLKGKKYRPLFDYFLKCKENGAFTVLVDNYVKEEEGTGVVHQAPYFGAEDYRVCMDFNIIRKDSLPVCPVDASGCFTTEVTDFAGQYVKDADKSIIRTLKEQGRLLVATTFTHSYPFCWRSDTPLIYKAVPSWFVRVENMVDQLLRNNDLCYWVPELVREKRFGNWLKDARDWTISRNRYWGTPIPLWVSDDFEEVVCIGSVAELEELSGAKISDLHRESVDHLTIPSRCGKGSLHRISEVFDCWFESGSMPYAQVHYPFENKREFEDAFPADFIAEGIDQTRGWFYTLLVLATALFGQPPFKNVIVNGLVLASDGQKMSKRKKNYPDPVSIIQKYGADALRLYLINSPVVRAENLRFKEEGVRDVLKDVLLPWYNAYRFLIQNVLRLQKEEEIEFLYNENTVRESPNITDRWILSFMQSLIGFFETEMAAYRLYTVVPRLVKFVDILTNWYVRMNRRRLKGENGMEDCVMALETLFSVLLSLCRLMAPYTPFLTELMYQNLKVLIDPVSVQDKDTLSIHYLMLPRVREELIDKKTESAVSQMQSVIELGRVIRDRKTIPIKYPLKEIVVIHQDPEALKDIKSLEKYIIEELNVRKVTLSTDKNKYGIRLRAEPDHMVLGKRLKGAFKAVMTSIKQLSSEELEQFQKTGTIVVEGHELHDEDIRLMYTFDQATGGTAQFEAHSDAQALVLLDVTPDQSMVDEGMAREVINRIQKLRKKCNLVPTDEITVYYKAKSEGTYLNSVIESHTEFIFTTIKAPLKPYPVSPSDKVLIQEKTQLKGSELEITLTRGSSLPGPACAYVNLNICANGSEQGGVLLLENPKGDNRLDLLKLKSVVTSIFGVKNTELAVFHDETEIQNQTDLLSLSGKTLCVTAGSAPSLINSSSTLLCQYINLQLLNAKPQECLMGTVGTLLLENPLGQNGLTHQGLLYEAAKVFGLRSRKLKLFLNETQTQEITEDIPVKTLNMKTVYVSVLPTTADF

[2] = molecular target: T2, HeLa cell extract proteins (Homo sapiens, UniProt P31947)
T2 construct: endogenous in cells; host or cells: HeLa cell extract
T2 sequence (P31947 1-248): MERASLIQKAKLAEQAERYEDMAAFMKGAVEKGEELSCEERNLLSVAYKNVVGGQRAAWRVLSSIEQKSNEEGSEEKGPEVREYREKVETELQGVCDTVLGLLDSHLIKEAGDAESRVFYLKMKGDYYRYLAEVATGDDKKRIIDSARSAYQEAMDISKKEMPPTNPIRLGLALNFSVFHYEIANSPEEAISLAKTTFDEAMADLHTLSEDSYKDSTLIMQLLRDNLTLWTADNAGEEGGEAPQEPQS

[3] = molecular target: T3, HeLa cell extract proteins (Homo sapiens, UniProt Q15437)
T3 construct: endogenous in cells; host or cells: HeLa cell extract
T3 sequence (Q15437 whole entry): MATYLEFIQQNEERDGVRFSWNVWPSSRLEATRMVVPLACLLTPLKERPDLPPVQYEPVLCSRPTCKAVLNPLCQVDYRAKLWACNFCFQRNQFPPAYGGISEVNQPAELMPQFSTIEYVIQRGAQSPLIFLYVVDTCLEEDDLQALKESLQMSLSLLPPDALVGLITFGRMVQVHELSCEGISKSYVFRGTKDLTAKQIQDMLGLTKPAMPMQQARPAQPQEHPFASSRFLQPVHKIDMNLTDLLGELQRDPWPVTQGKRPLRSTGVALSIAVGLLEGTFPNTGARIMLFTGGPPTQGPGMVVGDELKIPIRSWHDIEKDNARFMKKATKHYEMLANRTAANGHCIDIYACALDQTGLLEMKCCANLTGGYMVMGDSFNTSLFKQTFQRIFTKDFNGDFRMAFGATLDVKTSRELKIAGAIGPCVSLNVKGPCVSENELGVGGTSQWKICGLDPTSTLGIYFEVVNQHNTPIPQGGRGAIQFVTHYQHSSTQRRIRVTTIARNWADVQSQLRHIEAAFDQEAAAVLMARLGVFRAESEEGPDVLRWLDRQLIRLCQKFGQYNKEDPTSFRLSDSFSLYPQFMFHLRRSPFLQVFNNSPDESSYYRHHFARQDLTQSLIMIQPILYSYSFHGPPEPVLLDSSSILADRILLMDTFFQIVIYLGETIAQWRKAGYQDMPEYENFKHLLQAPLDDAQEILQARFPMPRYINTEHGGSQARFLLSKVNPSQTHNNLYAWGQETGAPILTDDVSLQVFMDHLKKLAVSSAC

[4] = molecular target: T4, HeLa cell extract proteins (Homo sapiens, UniProt P14678)
T4 construct: endogenous in cells; host or cells: HeLa cell extract

[5] = test system: HeLa cell extract proteins; settings: HeLa
[6] = molecular target: T5, HeLa cell extract proteins (Homo sapiens, UniProt P11310)
T5 construct: endogenous in cells; host or cells: HeLa cell extract
T5 sequence (P11310 26-421): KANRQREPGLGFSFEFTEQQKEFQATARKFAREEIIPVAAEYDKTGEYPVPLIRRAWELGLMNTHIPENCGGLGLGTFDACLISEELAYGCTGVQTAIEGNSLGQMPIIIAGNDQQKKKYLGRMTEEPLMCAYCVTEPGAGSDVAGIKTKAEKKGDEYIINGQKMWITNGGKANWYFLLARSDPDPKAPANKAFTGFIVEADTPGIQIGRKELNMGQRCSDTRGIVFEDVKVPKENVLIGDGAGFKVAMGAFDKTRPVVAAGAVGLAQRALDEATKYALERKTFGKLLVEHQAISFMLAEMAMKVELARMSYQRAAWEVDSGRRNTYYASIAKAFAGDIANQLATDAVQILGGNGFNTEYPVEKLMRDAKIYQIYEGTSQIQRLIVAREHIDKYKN

[7] = molecular target: T6, HeLa cell extract proteins (Homo sapiens, UniProt Q5T4S7)
T6 construct: endogenous in cells; host or cells: HeLa cell extract

[8] = molecular target: T7, HeLa cell extract proteins (Homo sapiens, UniProt Q9UI12)
T7 construct: endogenous in cells; host or cells: HeLa cell extract
T7 sequence (Q9UI12 whole entry): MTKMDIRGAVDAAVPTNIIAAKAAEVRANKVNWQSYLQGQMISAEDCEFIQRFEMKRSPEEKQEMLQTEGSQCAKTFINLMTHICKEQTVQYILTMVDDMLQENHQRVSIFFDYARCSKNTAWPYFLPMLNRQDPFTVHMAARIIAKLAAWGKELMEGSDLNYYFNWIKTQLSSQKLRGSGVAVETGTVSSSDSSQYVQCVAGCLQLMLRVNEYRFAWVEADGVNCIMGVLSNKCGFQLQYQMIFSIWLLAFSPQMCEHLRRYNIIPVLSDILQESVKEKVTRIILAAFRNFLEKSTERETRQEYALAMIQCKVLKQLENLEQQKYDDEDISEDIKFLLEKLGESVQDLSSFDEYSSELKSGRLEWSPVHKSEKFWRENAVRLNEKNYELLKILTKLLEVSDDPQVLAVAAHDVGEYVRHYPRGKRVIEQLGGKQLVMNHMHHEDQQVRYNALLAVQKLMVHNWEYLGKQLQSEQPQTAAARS

[9] = molecular target: T8, HeLa cell extract proteins (Homo sapiens, UniProt Q96AG4)
T8 construct: endogenous in cells; host or cells: HeLa cell extract
T8 sequence (Q96AG4 1-307): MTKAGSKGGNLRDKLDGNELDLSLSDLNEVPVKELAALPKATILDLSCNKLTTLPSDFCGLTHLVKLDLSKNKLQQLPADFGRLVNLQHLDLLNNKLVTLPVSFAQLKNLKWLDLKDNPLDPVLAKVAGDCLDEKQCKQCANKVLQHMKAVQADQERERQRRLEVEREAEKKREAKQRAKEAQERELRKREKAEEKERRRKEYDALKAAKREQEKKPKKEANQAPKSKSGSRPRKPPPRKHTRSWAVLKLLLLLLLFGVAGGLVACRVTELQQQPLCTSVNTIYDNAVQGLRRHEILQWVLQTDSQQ

[10] = molecular target: T9, HeLa cell extract proteins (Homo sapiens, UniProt Q99873)
T9 construct: endogenous in cells; host or cells: HeLa cell extract
T9 sequence (Q99873 whole entry): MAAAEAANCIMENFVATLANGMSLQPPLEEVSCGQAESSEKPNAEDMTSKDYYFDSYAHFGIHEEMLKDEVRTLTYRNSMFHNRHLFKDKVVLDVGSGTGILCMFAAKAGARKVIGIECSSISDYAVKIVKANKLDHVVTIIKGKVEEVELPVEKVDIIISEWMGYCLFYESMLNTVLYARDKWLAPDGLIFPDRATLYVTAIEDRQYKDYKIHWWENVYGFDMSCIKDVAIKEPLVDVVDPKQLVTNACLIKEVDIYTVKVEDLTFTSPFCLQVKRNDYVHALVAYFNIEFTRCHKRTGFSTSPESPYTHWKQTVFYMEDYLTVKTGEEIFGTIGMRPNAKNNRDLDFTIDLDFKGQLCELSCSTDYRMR

[11] = protein ABCB7 (ISOFORM 2 OF ATP-BINDING CASSETTE SUB-FAMILY B MEMBER 7, MIT[…])
[12] = protein ASAH1 (N-ACYLSPHINGOSINE AMIDOHYDROLASE (ACID CERAMIDASE) 1 ISOFORM B)
[13] = protein GTPBP3 (ISOFORM 2 OF TRNA MO[…] GTPBP3, MIT[…])
[14] = protein MYL6 (ISOFORM SMOOTH MUSCLE OF MYOSIN LIGHT POLYPEPTIDE 6)
[15] = protein PSMA1 (ISOFORM LONG OF […] ALPHA TYPE 1)
[16] = protein PSME1 ([…] SUBUNIT 1 ISOFORM 2)

Row | SMILES | fold changes relative to vehicle control ([1]; HeLa, captured protein IARS) | fold changes relative to vehicle control ([2]; HeLa, protein SFN) | fold changes relative to vehicle control ([3]; HeLa, protein SEC23B) | fold changes relative to vehicle control ([4]; HeLa, captured protein SNRPB) | fold changes relative to vehicle control ([5]; captured protein EIF1AP1) | fold changes relative to vehicle control ([5]; captured protein LOC442497) | fold changes relative to vehicle control [5, 11] | fold changes relative to vehicle control [5, 12] | fold changes relative to vehicle control [5, 13] | fold changes relative to vehicle control ([5]; protein LOC654188) | fold changes relative to vehicle control [5, 14] | fold changes relative to vehicle control ([5]; protein NME1-NME2) | fold changes relative to vehicle control [5, 15] | fold changes relative to vehicle control [5, 16] | fold changes relative to vehicle control ([5]; protein RPLP0-LIKE) | fold changes relative to vehicle control ([5]; protein HIST2H2BA) | fold changes relative to vehicle control ([5]; protein LOC646960) | fold changes relative to vehicle control ([7]; protein UBR4, HeLa) | fold changes relative to vehicle control ([8]; HeLa, protein ATP6V1H) | fold changes relative to vehicle control ([9]; HeLa, protein LRRC59) | other results
1 | NCCOCCOCC(=O)Nc1nc2ncc(CNc3ccc(C(=O)NC(CCC(=O)O)C(=O)O)cc3)nc2c(=O)[nH]1 (stereo not drawn) [compound 6] | 1.03 | 1.45 | 0.88 | 1.16 | 1.27 | 1.13 | 1.25 | 1.17 | 1.03 | 1.3 | 1.7 | 1.27 | 1.05 | 1.04 | 0.88 | 1.03 | 1.05 | 0.42 | 1.13 | 1.13 | fold changes relative to vehicle control ([6]; HeLa, protein ACADM (HYPOTHETICAL PROTEIN DKFZP686M24262)): 1.43; fold changes relative to vehicle control ([10]; HeLa, protein PRMT1): 0.95
2 | Nc1nc2[nH]cc(CCc3ccc(C(=O)N[C@@H](CCC(=O)O)C(=O)O)cc3)c2c(=O)[nH]1 [PTX, pemetrexed] |  |  |  |  | 0.95 | 1.08 | 1.19 | 1.19 | 0.49 | 1.12 | 1.4 | 1.08 | 1.09 | 1 | 0.92 | 0.94 | 0.95 |  |  |  | fold changes relative to vehicle control [1]: 0.96; fold changes relative to vehicle control [2]: 1.28; fold changes relative to vehicle control [3]: 0.91; fold changes relative to vehicle control [4]: 1.12; fold changes relative to vehicle control [6]: 1.3; fold changes relative to vehicle control [7]: 0.94; fold changes relative to vehicle control [8]: 0.99; fold changes relative to vehicle control [9]: 0.83; fold changes relative to vehicle control [10]: 0.93
3 | Nc1nc2c(c(=O)[nH]1)N(C=O)C(CNc1ccc(C(=O)N[C@@H](CCC(=O)O)C(=O)O)cc1)CN2 (stereo partly drawn) [LEU, leucovorin] | 1.01 | 1.07 | 0.98 | 1.16 | 0.99 | 1.06 | 1.18 | 1.17 |  | 0.98 | 1.06 | 0.99 | 1.18 | 1.03 | 0.86 | 0.92 | 0.84 | 1.02 | 1.04 | 0.83 | fold changes relative to vehicle control ([5]; protein GTPBP3 (ISOFORM 2 OF TRNA MODIFICATION GTPASE GTPBP3, MITOCHONDRIAL PRECURSOR)): 0.27; fold changes relative to vehicle control ([6]; HeLa, protein ACADM (HY[…] DKFZP686M24262)): 1.16; fold changes relative to vehicle control ([10]; HeLa, protein PRMT1): 0.94
